Test results: patent US10245275B2 (ViiV HEALTHCARE UK (NO.4) LIMITED, priority 2014, dated 2019)
Read-outs that look alike come from different tables or passages of the source.

Tests used:
[1] = test system: WT (wild-type HIV virus; recombinant NL4-3 virus); assay: microbe, parasite or virus in culture; type: cell-based, HIV-1
Procedure, shortened: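 MT-2 cells infected 4-5 days with NL4-3 carrying Renilla luciferase in place of part of nef (Gag P373S), virus made by 293T transfection, with serial inhibitor dilutions. Antiviral activity read as luciferase activity by a modified dual-luciferase read-out.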

[2] = test system: HIV-1 NL4-3 gag A364V virus; assay: microbe, parasite or virus in culture; type: cell-based
Procedure, shortened: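 Recombinant NL4-3 reporter virus with Renilla luciferase replacing part of nef, made by transfection of 293T cells. MT-2 cells infected for 4-5 days with serial inhibitor dilutions; antiviral activity quantified by luciferase activity.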

[3] = test system: HIV-1 92UG029 (clade A virus); assay: HIV cell culture assay, 92UG029 Gag/Pr recombinant virus in MT-2 cells; type: cell-based
Description: MT-2 cells and 293T cells were obtained from the NIH AIDS Research and Reference Reagent Program. MT-2 cells were propagated in RPMI 1640 media supplemented with 10% heat-inactivated fetal bovine serum, […]. The 293T cells were propagated in DMEM media supplemented with 10% heat-inactivated fetal bovine serum (FBS), 100 units/mL penicillin G and 100 μg/mL streptomycin. The proviral DNA clone of NL4-3 was obtained from the NIH AIDS Research and Reference Reagent Program. A recombinant NL4-3 virus, in which a section of the nef gene from NL4-3 was replaced with the Renilla luciferase gene, was used as a reference virus. In addition, residue Gag P373 was converted to P373S. Briefly, the recombinant virus was prepared by transfection of the altered proviral clone of NL4-3. Transfections were performed in 293T cells using LipofectAMINE PLUS from Invitrogen (Carlsbad, Calif.), according to manufacturer's instruction. The virus was titered in MT-2 cells using luciferase enzyme activity as a marker. Luciferase was quantitated using the Dual Luciferase kit from Promega (Madison, Wis.), with modifications to the manufacturer's protocol. The diluted Passive Lysis solution was pre-mixed with the re-suspended Luciferase Assay Reagent and the re-suspended Stop & Glo Substrate (2:1:1 ratio). Fifty (50) μL of the mixture was added to each aspirated well on assay plates and luciferase activity was measured immediately on a Wallac TriLux (Perkin-Elmer). Antiviral activities of inhibitors toward the recombinant virus were quantified by measuring luciferase activity in cells infected for 4-5 days with NLRluc recombinants in the presence serial dilutions of the inhibitor.
Determination of EC50 for WT, EC50 for A364V, and EC50 for 92UG029 viruses:
HIV-1 92UG029 was obtained from the NIH (Catalog Number: 1650). This is a subtype A Gag and subtype A Env, X4 (SI) virus from Uganda. Reference: WHO Network for HIV Isolation and Characterization. AIDS Res Hum Retroviruses 10:1359, 1994. The Gag/Pr region from 92UG029 was used to replace that in an HIV-1 NL4-3 virus expressing Renilla luciferase gene.
Both recombinant viruses were used as described above in the HIV cell culture assay for the NL4-3 virus.

[4] = Human immunodeficiency virus 1, NL43, MT2, read-out: WT (EC50, uM), Table 1 regular screen, class symbol
[5] = Human immunodeficiency virus 1, NL43, MT2, read-out: A364V (EC50, uM), Table 1 regular screen, class symbol
[6] = Human immunodeficiency virus 1, MT2, read-out: 92UG029A Clade T332S/V362I/V370A (EC50, uM)
[7] = Human immunodeficiency virus 1, NL43, MT2, read-out: WT (EC50, uM), Table 1 regular screen, MT-2 cells, luciferase readout
[8] = Human immunodeficiency virus 1, NL43, MT2, read-out: A364V (EC50, uM), Table 1 regular screen, MT-2 cells, luciferase readout

Structure (SMILES) | EC50 [1, 4] | EC50 [2, 5] | EC50 [3, 6] | EC50 [1, 7] | EC50 [2, 8] | other results
C=C(C)[C@@H]1CC[C@]2(NCC[C@]3(O)CC[C@@H](S(C)(=O)=O)CC3)CC[C@]3(C)[C@H](CC[C@@H]4[C@@]5(C)CC=C(C6=CC[C@@](CF)(C(=O)O)CC6)C(C)(C)[C@@H]5CC[C@]43C)[C@@H]12 [Example 2-20, (R)-1-(fluoromethyl)-4-((1R,3aS,5aR,5bR,7aR,11aS,11bR,13aR,13bR)-3a-((2-((cis)-1-hydroxy-4-(methylsulfonyl)cyclohexyl)ethyl)amino)-5a,5b,8,8,11a-pentamethyl-1-(prop-1-en-2-yl)-2,3,3a,4,5,5a,5b,6,7,7a,8,11,11a,11 b,12,13,13a,13b-octadecahydro-1H-cyclopenta[a]chrysen-9-yl)cyclohex-3-enecarboxylic acid] | < 0.05 µM | > 0.05 µM | < 0.05 µM |  |  | 
C=C(C)[C@@H]1CC[C@]2(NCCC3(O)COC3)CC[C@]3(C)[C@H](CC[C@@H]4[C@@]5(C)CC=C(C6=CC[C@@](CF)(C(=O)O)CC6)C(C)(C)[C@@H]5CC[C@]43C)[C@@H]12 [Example 2-11, (R)-1-(fluoromethyl)-4-((1R,3aS,5aR,5bR,7aR,11aS,11bR,13aR,13bR)-3a-((2-(3-hydroxyoxetan-3-yl)ethyl)amino)-5a,5b, 8,8,11a-pentamethyl-1-(prop-1-en-2-yl)-2,3,3a,4,5,5a,5b,6,7,7a,8,11,11a,11b,12,13,13a,13b-octadecahydro-1H-cyclopenta[a]chrysen-9-yl)cyclohex-3-enecarboxylic acid] | < 0.05 µM | > 0.05 µM | 0.0153 µM |  |  | 
C=C(C)[C@@H]1CC[C@]2(NCCN3CCC(S(C)(=O)=O)CC3)CC[C@]3(C)[C@H](CC[C@@H]4[C@@]5(C)CC=C(C6=CC[C@](CF)(C(=O)O)CC6)C(C)(C)[C@@H]5CC[C@]43C)[C@@H]12 [Example 1a, (S)-1-(fluoromethyl)-4-((1R,3aS,5aR,5bR,7aR,11aS,11bR,13aR,13bR)-5a,5b,8,8,11a-pentamethyl-3a-((2-(4-(methylsulfonyl)piperidin-1-yl)ethyl)amino)-1-(prop-1-en-2-yl)-2,3,3a,4,5,5a,5b,6,7,7a,8,11,11a,11b,12,13,13a,13b-octadecahydro-1H-cyclopenta[a]chrysen-9-yl)cyclohex-3-enecarboxylic acid] |  |  | 0.00532 µM | 0.00225 µM | 0.109 µM | 
C=C(C)[C@@H]1CC[C@]2(NCCN3CCC(S(C)(=O)=O)CC3)CC[C@]3(C)[C@H](CC[C@@H]4[C@@]5(C)CC=C(C6=CCC(F)(C(=O)O)CC6)C(C)(C)[C@@H]5CC[C@]43C)[C@@H]12 (some centres unmarked) [Compound A, reference compound] |  |  |  |  |  | EC50 ([1]; Human immunodeficiency virus 1, NL43, MT2, read-out: EC50 WT (μM), Table 2, 3× higher viral input): 0.004 µM; potency vs. WT (in words) ([1]; comparative data): good potency; EC50 ([2]; Human immunodeficiency virus 1, NL43, MT2, read-out: EC50 A364V (μM), Table 2, 3× higher viral input): 1.5 µM; fold less potent than Compound 2 vs A364V ([2]; relative to Compound 2): about 7 fold; EC50 ([3]; Human immunodeficiency virus 1, MT2, read-out: EC50 92UG029 (μM)): 0.61 µM; fold less potent than Compound 2 vs 92UG029 ([3]; relative to Compound 2): > 100 fold
C=C(C)[C@@H]1CC[C@]2(NCC[C@]3(O)CC[C@](C)(O)CC3)CC[C@]3(C)[C@H](CC[C@@H]4[C@@]5(C)CC=C(C6=CC[C@@](CF)(C(=O)O)CC6)C(C)(C)[C@@H]5CC[C@]43C)[C@@H]12 [Example 2-17, (R)-4-((1R,3aS,5aR,5bR,7aR,11aS,11bR,13aR,13bR)-3a-((2-((trans)-1,4-dihydroxy-4-methylcyclohexyl)ethyl)amino)-5a,5b,8,8,11a-pentamethyl-1-(prop-1-en-2-yl)-2,3,3a,4,5,5a,5b,6,7,7a,8,11,11a,11b,12,13,13a,13b-octadecahydro-1H-cyclopenta[a]chrysen-9-yl)-1-(fluoromethyl)cyclohex-3-enecarboxylic acid] | < 0.05 µM | < 0.05 µM | 0.00937 µM |  |  | 
C=C(C)[C@@H]1CC[C@]2(NCCN3CCC(S(C)(=O)=O)CC3)CC[C@]3(C)[C@H](CC[C@@H]4[C@@]5(C)CC=C(C6=CC[C@@](CF)(C(=O)O)CC6)C(C)(C)[C@@H]5CC[C@]43C)[C@@H]12 [Example 1b, (R)-1-(fluoromethyl)-4-((1R,3aS,5aR,5bR,7aR,11aS,11bR,13aR,13bR)-5a,5b, 8,8,11a-pentamethyl-3a-((2-(4-(methylsulfonyl)piperidin-1-yl)ethyl)amino)-1-(prop-1-en-2-yl)-2,3,3a,4,5,5a,5b,6,7,7a,8,11,11a,11 b,12,13,13a,13b-octadecahydro-1H-cyclopenta[a]chrysen-9-yl)cyclohex-3-enecarboxylic acid] |  |  | 0.00348 µM | 0.00193 µM | 0.176 µM | 
C=C(C)[C@@H]1CC[C@]2(NCCN3CCC(S(C)(=O)=O)CC3)CC[C@]3(C)[C@H](CC[C@@H]4[C@@]5(C)CC=C(C6=CCC(CF)(C(=O)O)CC6)C(C)(C)[C@@H]5CC[C@]43C)[C@@H]12 (mixture of isomers) [Example 1, 1-(fluoromethyl)-4-((1R,3aS,5aR,5bR,7aR,11aS,11bR,13aR,13bR)-5a,5b,8,8,11a-pentamethyl-3a-((2-(4-(methylsulfonyl)piperidin-1-yl)ethyl)amino)-1-(prop-1-en-2-yl)-2,3,3a,4,5,5a,5b,6,7,7a,8,11,11a,11b,12,13,13a,13b-octadecahydro-1H-cyclopenta[a]chrysen-9-yl)cyclohex-3-enecarboxylic acid] |  |  | 0.00293 µM | 0.00175 µM | 0.123 µM | 
C=C(C)[C@@H]1CC[C@]2(NCCN3CC(C)S(=O)(=O)C(C)C3)CC[C@]3(C)[C@H](CC[C@@H]4[C@@]5(C)CC=C(C6=CC[C@](CF)(C(=O)O)CC6)C(C)(C)[C@@H]5CC[C@]43C)[C@@H]12 (stereo partly drawn) [Example 25, (1S)-4-((1R,3aS,5aR,5bR,7aR,11aS,11bR,13aR,13bR)-3a-((2-(2,6-dimethyl-1,1-dioxidothiomorpholino)ethyl)amino)-5a,5b, 8,8,11a-pentamethyl-1-(prop-1-en-2-yl)-2,3,3a,4,5,5a,5b,6,7,7a,8,11,11a,11b,12,13,13a,13b-octadecahydro-1H-cyclopenta[a]chrysen-9-yl)-1-(fluoromethyl)cyclohex-3-enecarboxylic acid] | < 0.05 µM | > 0.05 µM |  |  |  | 
